The record followed here is patent publication US8993593B2, “N-(4-(6-fluoro-3,4-dihydroisoquinolin-2(1H)-yl)-2,6-dimethylphenyl)-3,3-dimethylbutanamide as potassium channel modulators” (Valeant Pharmaceuticals International, priority 2006, dated 2015).

Series [1] concerns the target hERG (Homo sapiens, UniProt Q12809). Nature of the series: in vitro.
In series [2] the target is KCNQ1 (Homo sapiens, UniProt P51787). Nature of the series: Two-electrode voltage-clamp in Xenopus laevis oocytes, KCNQ1. It is filed as cell-based. Also noted: KCNQ1 Block (%): dose or concentration left out as unconfirmed. The method, then:
Female Xenopus laevis extracted ovaries were purchased from eNASCO (LM00935MX, eNASCO Fort Atkinson, Wis.). […] Approximately 50 nl cRNA (about 50 ng) was injected for KCNQ1, KCNQ4, and KCNQ5 using a Nanoject microinjector (Drummond, Broomall, Pa., USA). For co-expression of KCNQ2 and KCNQ3 and of KCNQ1 and KCNE1, cRNA's were mixed in equal molar ratios before injection of approximately 50 nl. […] Oocytes were kept in Culture Barth solution at 19° C. which was changed daily and currents were recorded after 3 to 5 days.
KCNQ channel currents expressed in Xenopus laevis oocytes were recorded using a two-electrode voltage-clamp. […] The oocytes were placed in custom built perfusion chambers connected to a continuous flow system and impaled with a current electrode and a voltage-clamp electrode pulled from borosilicate glass on a Flaming/Brown Micropipette Puller (Sutter Instruments Co, Novato, Calif., USA).
All compounds were dissolved in DMSO to obtain concentrated stock solutions. On the day of electrophysiological experiments the stock solutions were thawed and diluted in recording solution to their final concentrations. The final DMSO concentration never exceeded 0.1%. Compound delivery was performed using a custom built multi-barrel apparatus connected to the flow system.
Data were acquired by means of an Axograph X software (Axograph Scientific, Sydney, AU) and analyzed using Graph Pad Prism (GraphPad Software Inc., CA, USA). […]
After steady channel current was recorded in the presence of Retigabine at its EC75, recorded oocyte was washed with the recording solution until its steady current returned to its normal level without the presence of any drugs. Then the channel steady current was recorded in the presence of the test compound at its EC75. The percent efficacy was then expressed as: % efficacy=(C2/C 1)×100 where C2 is the recorded steady current in the presence of follow-on compound at its EC75 and C1 is the recorded steady current in the presence of Retigabine at its EC75.

Series [3] is described as follows: Open field test (acute toxicity). As to conditions: Sprague-Dawley, in vivo, oral, rat, read-out: TD50, motor impairment. An excerpt:
Before MES test, compound treated rats are visually observed for acute toxicity signs for approximately one minute in the open field test. Here, rats are gently placed into a plexiglass enclosure and are monitored for behavior consistent with toxicity including ataxia, trembling, hypoactivity (including failure to seek the walls), hypersensitivity, lack of exploratory behavior and lack of avoidance of the open area. […] Motor impairment, as judged by this test was not observed in the rat model and generated a TD50 value of greater than 5 mg/kg.

Chain of hERG (Q12809 whole entry): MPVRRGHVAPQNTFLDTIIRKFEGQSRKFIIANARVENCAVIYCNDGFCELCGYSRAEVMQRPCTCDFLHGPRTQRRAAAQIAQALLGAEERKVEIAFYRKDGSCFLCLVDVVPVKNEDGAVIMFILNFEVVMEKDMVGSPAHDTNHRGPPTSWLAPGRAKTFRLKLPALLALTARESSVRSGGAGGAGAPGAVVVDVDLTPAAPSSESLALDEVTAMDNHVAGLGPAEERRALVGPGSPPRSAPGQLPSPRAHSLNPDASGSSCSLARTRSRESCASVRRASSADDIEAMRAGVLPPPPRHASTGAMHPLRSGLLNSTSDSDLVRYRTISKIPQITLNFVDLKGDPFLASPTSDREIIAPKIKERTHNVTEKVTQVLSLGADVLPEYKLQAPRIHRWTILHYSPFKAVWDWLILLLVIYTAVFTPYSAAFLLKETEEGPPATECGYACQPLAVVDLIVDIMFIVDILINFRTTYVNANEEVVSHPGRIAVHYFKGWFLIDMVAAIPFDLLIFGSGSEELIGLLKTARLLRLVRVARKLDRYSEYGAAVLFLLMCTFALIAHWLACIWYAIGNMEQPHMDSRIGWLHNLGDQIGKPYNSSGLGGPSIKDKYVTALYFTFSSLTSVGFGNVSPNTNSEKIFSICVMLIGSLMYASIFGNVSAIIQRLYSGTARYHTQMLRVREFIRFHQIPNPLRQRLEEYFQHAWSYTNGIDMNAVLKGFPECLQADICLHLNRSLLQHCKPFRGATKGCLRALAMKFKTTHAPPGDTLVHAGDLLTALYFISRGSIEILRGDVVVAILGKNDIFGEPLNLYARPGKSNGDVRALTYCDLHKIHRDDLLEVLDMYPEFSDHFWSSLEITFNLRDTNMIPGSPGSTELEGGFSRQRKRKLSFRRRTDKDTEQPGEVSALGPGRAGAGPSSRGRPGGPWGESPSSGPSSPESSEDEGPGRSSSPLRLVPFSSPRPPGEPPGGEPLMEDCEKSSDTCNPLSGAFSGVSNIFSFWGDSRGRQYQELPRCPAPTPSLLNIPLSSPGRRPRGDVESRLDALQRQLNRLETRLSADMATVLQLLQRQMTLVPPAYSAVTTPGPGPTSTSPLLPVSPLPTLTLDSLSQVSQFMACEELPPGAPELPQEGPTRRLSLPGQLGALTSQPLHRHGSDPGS

Broadly, the inhibition is the change of the read-out against control, counted positive when it falls. One may read the TD50 as the 50% point of the dose-response relation for the toxic effect studied. In the case of `Cc1cc(N2CCc3cc(F)ccc3C2)cc(C)c1NC(=O)CC(C)(C)C` [compound A, N-[4-(6-fluoro-3,4-dihydro-1H-isoquinolin-2-yl)-2,6-dimethylphenyl]-3,3-dimethyl butanamide], the inhibition at 30 µM in series [1] was -0.1%. In addition, the “KCNQ1 Block (%)” value in series [2] (oocyte expression) was 0%. Besides, the “effect on KCNQ1 (cardiac potential)” value in series [2] (selectivity versus KCNQ2-5, in words) is recorded as “not affecting”. For the same compound, the TD50 at 1 min in series [3] is more than 5 mg/kg.
